This note sets out measurements from patent US20220332774A1, “THERAPEUTIC MITOCHONDRIAL PEPTIDES” (priority 2019, published 2022).

One experiment concerns C2C12 Cells. The experiment is described as follows: Glucose utilization in cultured C2C12 cells (myotubes). The format is cell-based, mouse. Conditions: glucose concentration in medium relative to untreated cells; 5 μM peptide, 22 h. An outline of the steps: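 Differentiated mouse myotubes (5 days in 2% horse serum) serum-starved 5 h, then treated 22 h at 37 °C with peptide at 5 μM final (0.1% DMSO) in low-glucose (1 g/L) DMEM. Glucose remaining in medium measured colorimetrically at 570 nm. Expressed as percent of untreated control, from 2–3 experiments in triplicate.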

The subject of the next experiment is 3T3-L1 Mouse Adipocytes. The experiment is described as follows: Free fatty acid levels in cultured 3T3-L1 mouse adipocytes (isoproterenol stimulated). Conditions: free fatty acid in medium; 5 μM peptide, 20-22 h pre-incubation then 3 h with 0.1 nM isoproterenol; isoproterenol alone = 100%. The format is cell-based. The method in brief:
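3T3-L1 cells differentiated 12 days, insulin withdrawn, then peptides added on day 13 at 5 μM (0.1% DMSO) for 20-22 h at 37° C. After 3 h in assay buffer, medium free fatty acids read at 540 nm. Values expressed as percent of 0.1 nM isoproterenol-alone control.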

The test system of the next experiment is H4-IIE Cells. The experiment is described as follows: Glucose production in cultured H4-IIE cells. It counts as cell-based, rat. Conditions: glucose concentration in medium relative to untreated cells; 5 μM peptide, 24 h. An outline of the steps:
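Rat H4-IIE hepatoma cells primed overnight in glucose-free DMEM with 2 mM pyruvate and 10 mM lactate, then treated 24 h at 37 °C with 5 μM peptide (0.1% DMSO; concentration assumes ~2000 Da). Medium glucose measured colorimetrically at 570 nm. Values are percent of untreated-cell glucose production; 0.5-1 nM insulin served as inhibitor reference.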

On to 35 (MGGRWGLGWWRAG) [compound 35], for which the results for the “Percent of Control Activity” value in the experiment on C2C12 Cells and in the experiment on H4-IIE Cells were 108% and 100%, respectively. Further, the “Percent of Isoproterenol Control Activity” value with 3T3-L1 Mouse Adipocytes is 98%.

For the substance 1 (MAAAPSGCPDPTS) [compound 1], the “Percent of Control Activity” value with C2C12 Cells is reported as 99%; with H4-IIE Cells, 128%. Besides, the “Percent of Isoproterenol Control Activity” value with 3T3-L1 Mouse Adipocytes was 85%.

With 154 (MVSSGDWYSWCE) [compound 154], the results for the “Percent of Control Activity” value in the experiment with C2C12 Cells and with H4-IIE Cells were 107% and 98%, respectively. Also, the “Percent of Isoproterenol Control Activity” value in the experiment on 3T3-L1 Mouse Adipocytes was determined as 89%.

As for “112 (MQSGVLQSLAVTEIKYCNLL) [compound 112]”, the “Percent of Control Activity” value in the experiment on C2C12 Cells stood at 93%; in the experiment with H4-IIE Cells it was 144%. In addition, the “Percent of Isoproterenol Control Activity” value in the experiment on 3T3-L1 Mouse Adipocytes amounted to 103%.

“178 (MVQTVSISWASEMLVLVSFVVSV) [compound 178]”: the “Percent of Control Activity” value in the experiment on C2C12 Cells is 99%; with H4-IIE Cells, 108%. Also, in the experiment with 3T3-L1 Mouse Adipocytes, the “Percent of Isoproterenol Control Activity” value was 90%.

Turning to 173 (MYTPTNNVQPVTTTNQRP) [compound 173], the entries for the “Percent of Control Activity” value in the experiment on C2C12 Cells and with H4-IIE Cells were 95% and 103%, respectively. The “Percent of Isoproterenol Control Activity” value in the experiment with 3T3-L1 Mouse Adipocytes is listed as 114%.

168 (MYCNWDCSGE) [compound 168]: the “Percent of Control Activity” value with C2C12 Cells turned out to be 103%; with H4-IIE Cells, 120%. Moreover, the “Percent of Isoproterenol Control Activity” value in the experiment on 3T3-L1 Mouse Adipocytes was 108%.

For 120 (MSMPVLGWQWG) [compound 120], the “Percent of Control Activity” value is reported as 98% in the experiment with C2C12 Cells and 118% in the experiment with H4-IIE Cells. Further, the “Percent of Isoproterenol Control Activity” value in the experiment with 3T3-L1 Mouse Adipocytes is on record as 95%.

Take 105 (MPRKCWLYPSRTN) [compound 105]: the figures for the “Percent of Control Activity” value in the experiment with C2C12 Cells and in the experiment with H4-IIE Cells were 114% and 118%, respectively. Further, the “Percent of Isoproterenol Control Activity” value with 3T3-L1 Mouse Adipocytes is 91%.

Regarding 172 (MYTNKQCSTSNYY) [compound 172], the figures for the “Percent of Control Activity” value in the experiment on C2C12 Cells and with H4-IIE Cells were 106% and 111%, respectively. The “Percent of Isoproterenol Control Activity” value with 3T3-L1 Mouse Adipocytes was determined as 94%.

For the substance “53 (MIYVSSDVGDWWKGGWGVWWVVHG) [compound 53]”, the “Percent of Control Activity” value with C2C12 Cells stood at 101%; in the experiment with H4-IIE Cells, 115%. For the same substance, the “Percent of Isoproterenol Control Activity” value in the experiment with 3T3-L1 Mouse Adipocytes stood at 91%.

On to 79 (MMCLRFRWCGLWS) [compound 79], for which the entries for the “Percent of Control Activity” value in the experiment on C2C12 Cells and in the experiment on H4-IIE Cells were 94% and 116%, respectively. Moreover, the “Percent of Isoproterenol Control Activity” value with 3T3-L1 Mouse Adipocytes is 90%.

147 (MVLFLLGMVG) [compound 147]: the “Percent of Control Activity” value is given as 107% in the experiment with C2C12 Cells and 98% in the experiment on H4-IIE Cells. The “Percent of Isoproterenol Control Activity” value in the experiment on 3T3-L1 Mouse Adipocytes was found to be 99%.

On to 39 (MGNIIRAWCGEGCL) [compound 39], for which the “Percent of Control Activity” value amounted to 107% with C2C12 Cells and 114% in the experiment with H4-IIE Cells. Besides, the “Percent of Isoproterenol Control Activity” value with 3T3-L1 Mouse Adipocytes came out at 99%.

As for “75 (MLTPGLVNFVPATAVTRLTQVN) [compound 75]”, the figures for the “Percent of Control Activity” value in the experiment on C2C12 Cells and in the experiment with H4-IIE Cells were 100% and 112%, respectively. Moreover, the “Percent of Isoproterenol Control Activity” value in the experiment on 3T3-L1 Mouse Adipocytes was determined as 79%.

As for 4 (MAHTFPLNKTSR) [compound 4], the results for the “Percent of Control Activity” value with C2C12 Cells and in the experiment on H4-IIE Cells were 101% and 116%, respectively. Moreover, in the experiment on 3T3-L1 Mouse Adipocytes, the “Percent of Isoproterenol Control Activity” value is 80%.

For 68 (MLLNSHRCSMSKDNHHSP) [compound 68], the results for the “Percent of Control Activity” value in the experiment on C2C12 Cells and in the experiment with H4-IIE Cells were 99% and 105%, respectively. Also, the “Percent of Isoproterenol Control Activity” value with 3T3-L1 Mouse Adipocytes is 99%.
